Where two headings read alike, the source gives them in different places.
Tests used:
CIT = CIT (Homo sapiens, UniProt O14578); experiment: KINOMEscan CIT; format: binding; conditions: NEW KINOMEscan
TGFBR1 [1] = biological target: T1, TGFBR1 (Homo sapiens, UniProt P36897); experiment: KINOMEscan TGFBR1; format: binding
T1 sequence (P36897 34-503): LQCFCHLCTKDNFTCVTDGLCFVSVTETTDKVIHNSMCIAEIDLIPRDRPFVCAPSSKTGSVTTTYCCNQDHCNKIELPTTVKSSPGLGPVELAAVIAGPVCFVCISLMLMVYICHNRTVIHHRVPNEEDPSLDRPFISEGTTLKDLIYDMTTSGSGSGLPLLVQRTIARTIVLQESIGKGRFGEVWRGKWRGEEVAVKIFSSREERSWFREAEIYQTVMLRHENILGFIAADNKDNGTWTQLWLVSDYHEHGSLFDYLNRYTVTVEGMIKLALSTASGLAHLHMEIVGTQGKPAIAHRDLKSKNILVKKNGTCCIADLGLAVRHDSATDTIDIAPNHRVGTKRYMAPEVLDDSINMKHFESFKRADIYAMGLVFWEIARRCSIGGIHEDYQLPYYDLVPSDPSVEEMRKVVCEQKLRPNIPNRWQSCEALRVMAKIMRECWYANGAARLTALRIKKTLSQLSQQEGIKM

PRKD2 = biological target: T2, PRKD2 (Homo sapiens, UniProt Q9BZL6); experiment: KINOMEscan PRKD2; format: binding; conditions: NEW KINOMEscan
T2 sequence (Q9BZL6 1-878): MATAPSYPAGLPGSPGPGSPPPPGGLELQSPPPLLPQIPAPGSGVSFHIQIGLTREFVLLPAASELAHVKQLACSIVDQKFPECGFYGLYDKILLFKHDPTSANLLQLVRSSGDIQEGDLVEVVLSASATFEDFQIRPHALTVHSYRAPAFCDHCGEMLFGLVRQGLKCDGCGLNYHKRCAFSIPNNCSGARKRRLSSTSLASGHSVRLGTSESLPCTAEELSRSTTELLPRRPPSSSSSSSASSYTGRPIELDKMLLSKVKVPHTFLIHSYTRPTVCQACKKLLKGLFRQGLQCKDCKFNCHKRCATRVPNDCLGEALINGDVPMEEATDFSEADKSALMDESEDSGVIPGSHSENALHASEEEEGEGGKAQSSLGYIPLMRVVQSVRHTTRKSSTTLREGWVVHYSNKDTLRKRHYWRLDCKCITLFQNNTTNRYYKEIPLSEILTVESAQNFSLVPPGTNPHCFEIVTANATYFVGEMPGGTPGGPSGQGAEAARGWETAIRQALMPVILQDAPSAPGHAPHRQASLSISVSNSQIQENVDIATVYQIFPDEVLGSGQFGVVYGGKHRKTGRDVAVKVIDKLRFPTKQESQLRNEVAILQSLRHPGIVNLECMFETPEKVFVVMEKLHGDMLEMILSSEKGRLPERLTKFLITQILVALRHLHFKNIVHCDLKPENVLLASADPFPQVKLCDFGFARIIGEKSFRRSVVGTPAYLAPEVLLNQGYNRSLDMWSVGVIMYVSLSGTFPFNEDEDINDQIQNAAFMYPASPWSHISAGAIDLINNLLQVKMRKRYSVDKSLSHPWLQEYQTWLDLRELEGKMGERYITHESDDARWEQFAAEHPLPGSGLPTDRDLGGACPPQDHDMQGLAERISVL

CSNK1E = CSNK1E (Homo sapiens, UniProt P49674); experiment: KINOMEscan CSNK1E; format: binding; conditions: NEW KINOMEscan
[2] = biological target: kinases (KINOMEscan panel) (Homo sapiens, UniProt P11362); format: binding; conditions: kinase FGFR1; NEW KINOMEscan
BMPR1B = BMPR1B (Homo sapiens, UniProt O00238); experiment: KINOMEscan BMPR1B; format: binding; conditions: NEW KINOMEscan
JAK1(JH2) = biological target: T3, JAK1(JH2) (Homo sapiens, UniProt P23458); experiment: KINOMEscan JAK1(JH2); format: binding; conditions: NEW KINOMEscan
T3 construct: JAK1(JH2)

ACVR1B = biological target: T4, ACVR1B (Homo sapiens, UniProt P36896); experiment: KINOMEscan ACVR1B; format: binding
T4 sequence (P36896 24-505): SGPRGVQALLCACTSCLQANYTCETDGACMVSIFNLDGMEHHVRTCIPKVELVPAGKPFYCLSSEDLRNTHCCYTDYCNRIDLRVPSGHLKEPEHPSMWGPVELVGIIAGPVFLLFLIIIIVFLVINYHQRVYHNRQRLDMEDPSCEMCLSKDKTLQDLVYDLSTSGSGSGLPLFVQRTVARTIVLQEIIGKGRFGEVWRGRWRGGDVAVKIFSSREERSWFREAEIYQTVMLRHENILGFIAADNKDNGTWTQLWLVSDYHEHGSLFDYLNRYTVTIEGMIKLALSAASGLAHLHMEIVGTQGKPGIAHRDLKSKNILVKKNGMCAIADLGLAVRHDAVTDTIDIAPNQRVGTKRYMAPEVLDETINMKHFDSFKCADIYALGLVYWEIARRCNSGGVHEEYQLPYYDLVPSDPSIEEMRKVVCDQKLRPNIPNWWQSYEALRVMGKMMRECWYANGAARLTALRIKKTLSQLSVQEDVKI

CDC42BPG/DMPK2 = CDC42BPG/DMPK2 (Homo sapiens, UniProt Q6DT37); format: binding
TGFBR1 [3] = biological target: T1, TGFBR1; experiment: TGFBR1 binding KD (Table S3)
Description: Supplement KAUP_A_2095834_SM5251.zip/Supplementary Tables R7.xlsx, sheet "Table S3 - Analogues"

T3 sequence (P23458 583-855 limits assumed): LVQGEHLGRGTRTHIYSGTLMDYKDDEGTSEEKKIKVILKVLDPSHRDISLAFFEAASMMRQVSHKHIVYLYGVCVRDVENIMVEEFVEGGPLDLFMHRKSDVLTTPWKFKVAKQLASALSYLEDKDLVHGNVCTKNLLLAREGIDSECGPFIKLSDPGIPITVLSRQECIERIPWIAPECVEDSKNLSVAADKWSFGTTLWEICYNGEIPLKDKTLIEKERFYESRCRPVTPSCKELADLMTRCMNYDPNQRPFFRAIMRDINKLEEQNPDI
Chain of CDC42BPG/DMPK2 (Q6DT37 whole entry): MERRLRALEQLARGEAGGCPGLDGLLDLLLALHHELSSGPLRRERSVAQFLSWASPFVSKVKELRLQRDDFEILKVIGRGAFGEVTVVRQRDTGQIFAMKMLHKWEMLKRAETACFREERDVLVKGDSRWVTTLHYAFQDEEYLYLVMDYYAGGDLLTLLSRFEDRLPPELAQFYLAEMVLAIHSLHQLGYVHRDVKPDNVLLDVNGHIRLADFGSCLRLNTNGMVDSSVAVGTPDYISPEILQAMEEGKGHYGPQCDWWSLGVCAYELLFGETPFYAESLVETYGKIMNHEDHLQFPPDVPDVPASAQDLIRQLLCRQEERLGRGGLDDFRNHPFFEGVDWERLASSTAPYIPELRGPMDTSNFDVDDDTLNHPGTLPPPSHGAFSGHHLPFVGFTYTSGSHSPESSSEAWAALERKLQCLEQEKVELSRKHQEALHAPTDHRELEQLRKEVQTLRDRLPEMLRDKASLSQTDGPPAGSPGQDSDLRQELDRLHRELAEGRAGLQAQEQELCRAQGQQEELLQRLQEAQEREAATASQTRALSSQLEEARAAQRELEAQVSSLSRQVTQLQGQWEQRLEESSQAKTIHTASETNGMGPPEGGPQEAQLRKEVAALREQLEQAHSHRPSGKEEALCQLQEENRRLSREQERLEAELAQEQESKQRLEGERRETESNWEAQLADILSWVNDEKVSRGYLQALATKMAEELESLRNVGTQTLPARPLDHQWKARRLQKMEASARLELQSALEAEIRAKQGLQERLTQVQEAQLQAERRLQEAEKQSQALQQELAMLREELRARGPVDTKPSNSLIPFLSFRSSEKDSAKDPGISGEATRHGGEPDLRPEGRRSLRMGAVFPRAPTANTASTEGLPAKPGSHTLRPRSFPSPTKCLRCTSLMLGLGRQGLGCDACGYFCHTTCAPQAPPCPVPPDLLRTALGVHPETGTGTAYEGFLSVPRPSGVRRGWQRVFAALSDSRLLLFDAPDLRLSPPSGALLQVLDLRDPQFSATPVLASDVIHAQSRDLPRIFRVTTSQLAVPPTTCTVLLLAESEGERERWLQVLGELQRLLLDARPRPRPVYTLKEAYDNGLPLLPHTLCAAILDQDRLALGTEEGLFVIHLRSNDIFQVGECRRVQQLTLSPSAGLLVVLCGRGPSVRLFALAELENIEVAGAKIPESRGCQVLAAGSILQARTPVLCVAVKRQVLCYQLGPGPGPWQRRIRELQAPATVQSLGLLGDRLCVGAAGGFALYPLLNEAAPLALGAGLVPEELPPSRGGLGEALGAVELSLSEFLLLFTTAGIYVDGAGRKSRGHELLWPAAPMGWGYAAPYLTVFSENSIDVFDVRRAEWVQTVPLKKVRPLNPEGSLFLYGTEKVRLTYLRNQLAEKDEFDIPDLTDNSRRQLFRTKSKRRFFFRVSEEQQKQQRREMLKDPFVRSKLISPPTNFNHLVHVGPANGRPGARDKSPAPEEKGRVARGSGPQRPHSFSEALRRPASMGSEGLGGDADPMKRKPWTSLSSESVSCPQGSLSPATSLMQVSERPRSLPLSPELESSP
Chain of BMPR1B (O00238 14-502): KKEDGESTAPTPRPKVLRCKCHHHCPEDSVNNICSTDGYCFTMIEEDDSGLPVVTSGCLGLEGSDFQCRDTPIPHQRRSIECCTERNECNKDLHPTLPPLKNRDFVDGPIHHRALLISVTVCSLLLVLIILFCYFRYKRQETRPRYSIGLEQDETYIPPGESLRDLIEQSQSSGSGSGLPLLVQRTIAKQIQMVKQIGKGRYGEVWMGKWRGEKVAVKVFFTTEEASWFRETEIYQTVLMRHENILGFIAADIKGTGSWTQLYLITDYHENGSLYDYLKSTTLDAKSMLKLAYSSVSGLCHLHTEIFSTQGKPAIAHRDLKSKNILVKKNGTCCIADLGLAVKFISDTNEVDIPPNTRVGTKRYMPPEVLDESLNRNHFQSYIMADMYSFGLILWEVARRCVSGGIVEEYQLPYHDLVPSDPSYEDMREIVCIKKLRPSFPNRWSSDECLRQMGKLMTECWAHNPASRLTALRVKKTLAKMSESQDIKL
Chain of CIT (O14578 whole entry): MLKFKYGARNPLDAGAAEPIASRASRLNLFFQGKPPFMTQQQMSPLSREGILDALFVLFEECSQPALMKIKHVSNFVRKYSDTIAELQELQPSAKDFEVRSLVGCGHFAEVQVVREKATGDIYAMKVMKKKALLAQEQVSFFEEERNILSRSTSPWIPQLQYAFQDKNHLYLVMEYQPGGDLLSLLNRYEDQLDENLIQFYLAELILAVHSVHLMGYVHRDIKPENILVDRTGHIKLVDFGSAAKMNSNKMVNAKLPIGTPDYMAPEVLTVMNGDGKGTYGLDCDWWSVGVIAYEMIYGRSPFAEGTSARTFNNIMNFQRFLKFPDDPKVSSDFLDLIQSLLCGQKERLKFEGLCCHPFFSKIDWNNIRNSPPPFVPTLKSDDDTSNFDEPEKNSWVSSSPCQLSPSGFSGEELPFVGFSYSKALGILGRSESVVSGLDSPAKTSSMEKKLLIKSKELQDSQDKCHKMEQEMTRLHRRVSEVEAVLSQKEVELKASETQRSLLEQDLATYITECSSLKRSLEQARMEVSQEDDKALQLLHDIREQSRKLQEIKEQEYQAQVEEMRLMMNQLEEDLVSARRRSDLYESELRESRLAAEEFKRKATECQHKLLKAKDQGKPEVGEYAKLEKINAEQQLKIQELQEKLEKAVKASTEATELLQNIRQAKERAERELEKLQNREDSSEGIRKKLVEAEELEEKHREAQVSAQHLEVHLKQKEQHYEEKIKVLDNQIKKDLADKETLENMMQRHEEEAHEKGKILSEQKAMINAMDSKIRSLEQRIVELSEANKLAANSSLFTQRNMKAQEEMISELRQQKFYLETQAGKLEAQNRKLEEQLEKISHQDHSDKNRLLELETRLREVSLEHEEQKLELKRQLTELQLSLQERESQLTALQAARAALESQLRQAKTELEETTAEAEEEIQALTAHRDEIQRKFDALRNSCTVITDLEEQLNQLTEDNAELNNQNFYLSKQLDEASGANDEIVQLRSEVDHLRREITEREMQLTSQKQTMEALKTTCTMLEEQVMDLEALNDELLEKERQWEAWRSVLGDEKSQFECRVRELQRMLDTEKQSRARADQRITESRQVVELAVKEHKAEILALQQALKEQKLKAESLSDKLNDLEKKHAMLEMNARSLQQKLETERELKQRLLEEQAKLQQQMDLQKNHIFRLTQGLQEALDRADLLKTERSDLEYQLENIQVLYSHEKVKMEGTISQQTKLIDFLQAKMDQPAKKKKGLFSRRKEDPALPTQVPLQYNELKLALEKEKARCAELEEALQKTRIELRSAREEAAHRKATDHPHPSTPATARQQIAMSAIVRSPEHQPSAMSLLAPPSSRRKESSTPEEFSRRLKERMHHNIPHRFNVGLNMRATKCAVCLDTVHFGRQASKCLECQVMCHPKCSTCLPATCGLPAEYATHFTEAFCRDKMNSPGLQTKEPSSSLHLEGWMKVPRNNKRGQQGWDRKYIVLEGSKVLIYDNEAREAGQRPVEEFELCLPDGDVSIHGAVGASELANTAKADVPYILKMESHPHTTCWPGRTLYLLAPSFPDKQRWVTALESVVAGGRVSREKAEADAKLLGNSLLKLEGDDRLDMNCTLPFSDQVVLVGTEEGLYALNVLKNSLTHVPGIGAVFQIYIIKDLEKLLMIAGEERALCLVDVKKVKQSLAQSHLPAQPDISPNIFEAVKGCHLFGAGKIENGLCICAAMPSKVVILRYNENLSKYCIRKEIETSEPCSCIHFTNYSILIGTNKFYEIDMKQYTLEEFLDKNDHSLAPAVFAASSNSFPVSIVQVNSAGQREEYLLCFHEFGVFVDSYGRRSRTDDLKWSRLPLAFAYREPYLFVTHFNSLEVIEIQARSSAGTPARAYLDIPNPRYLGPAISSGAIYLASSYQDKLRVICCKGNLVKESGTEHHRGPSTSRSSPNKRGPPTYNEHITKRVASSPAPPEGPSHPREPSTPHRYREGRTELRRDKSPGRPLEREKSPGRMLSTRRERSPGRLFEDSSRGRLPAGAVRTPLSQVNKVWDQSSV
Chain of CSNK1E (P49674 whole entry): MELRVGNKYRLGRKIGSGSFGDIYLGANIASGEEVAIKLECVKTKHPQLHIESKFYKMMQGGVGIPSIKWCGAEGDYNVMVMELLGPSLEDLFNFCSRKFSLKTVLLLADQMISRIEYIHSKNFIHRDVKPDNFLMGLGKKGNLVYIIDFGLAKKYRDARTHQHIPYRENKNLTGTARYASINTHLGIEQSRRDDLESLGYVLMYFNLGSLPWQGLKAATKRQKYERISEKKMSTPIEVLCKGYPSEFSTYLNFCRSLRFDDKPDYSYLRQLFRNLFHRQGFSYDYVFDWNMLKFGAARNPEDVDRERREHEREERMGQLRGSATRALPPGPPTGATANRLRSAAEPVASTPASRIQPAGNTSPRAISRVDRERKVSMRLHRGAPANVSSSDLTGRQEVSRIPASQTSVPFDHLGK

Compound | KINOMEscan CIT (CIT) | KINOMEscan TGFBR1 (TGFBR1 [1]; TGFBR1, NEW KINOMEscan) | KINOMEscan PRKD2 (PRKD2) | KINOMEscan CSNK1E (CSNK1E) | KINOMEscan FGFR1 [2] | KINOMEscan BMPR1B (BMPR1B) | KINOMEscan JAK1(JH2domain-pseudokinase) (JAK1(JH2)) | KINOMEscan ACVR1B (ACVR1B; ACVR1B, NEW KINOMEscan) | KINOMEscan CDC42BPG/DMPK2 (CDC42BPG/DMPK2) | Kd (TGFBR1 [3]) [µM] | KINOMEscan TGFBR1 (TGFBR1 [1]) | KINOMEscan ACVR1B (ACVR1B)
Cc1cccc(-c2nc(N(C)c3ccc4ncsc4c3)c3ccccc3n2)n1 [NK-161] | 0 | 12 | 63 | 7 | 10 | 8 | 41 | 28 | 21 | – | – | –
Cc1cccc(-c2nc(Nc3ccc4ncsc4c3)c3ccccc3n2)n1 [NK140] | – | – | – | – | – | – | – | – | – | 5 | – | –
Cc1cccc(-c2nc(Nc3ccc4nn(C)cc4c3)c3ccccc3n2)n1 [NK167] | 3 | – | 39 | 8 | 15 | 0 | 36 | – | 0 | – | 21 | 20
Cc1cccc(-c2nc(Nc3ccncc3)c3ccccc3n2)n1 [NK215] | – | – | – | – | – | – | – | – | – | 0.0095 | – | –

Reference: paper PMC9851200, “Multiparameter phenotypic screening for endogenous TFEB and TFE3 translocation identifies novel chemical series modulating lysosome function” (Autophagy, 2022)
